The values below come from patent US9309200B2, “Benzazepine derivatives, pharmaceutical compositions containing them, and their use in therapy” (AbbVie Deutschland GmbH & Co. KG, priority 2011, dated 2016).

Each structure is given as a SMILES string. A value given as a limit tells only on which side of the number the result lay.

The nature of series [1]: Metabolic stability in human liver microsomes (microsomal clearance). Type of series: in vitro ADME. Particulars: human liver microsomes 0.25 mg protein/ml, 0.5 μM test substance, NADPH 1.0 mM, pH 7.4, 37° C. On the procedure:
The metabolic stability of a compound can be measured for example by incubating a solution of this compound with liver microsomes from particular species (for example rat, dog or human) and determining the half-life of the compound under these conditions (R S Obach, Curr Opin Drug Discov Devel. 2001, 4, 36-44). It is possible in this connection to conclude from an observed longer half-life that the metabolic stability of the compound is improved. The stability in the presence of human liver microsomes is of particular interest because it makes it possible to predict the metabolic degradation of the compound in the human liver. Compounds with increased metabolic stability (measured in the liver microsome test) are therefore probably also degraded more slowly in the liver. The slower metabolic degradation in the liver may lead to higher and/or longer-lasting concentrations (active levels) of the compound in the body, so that the elimination half-life of the compounds of the invention is increased. Increased and/or longer-lasting active levels may lead to a better activity of the compound in therapeutic treatment. In addition, an improved metabolic stability may lead to an increased bioavailability after oral administration, because the compound is subject, after absorption in the intestine, to less metabolic degradation in the liver (so-called first pass effect). An increased oral bioavailability may, owing to an increased concentration (active level) of the compound, lead to a better activity of the compound after oral administration.
Metabolic stability was determined as follows:
0.5 μM test substance was preincubated together with human liver microsomes (0.25 mg of microsomal protein/ml) in 0.05 M potassium phosphate buffer of pH 7.4 in microtiter plates at 37° C. for 5 min. The reaction was started by adding NADPH (1.0 mM). After 0, 5, 10, 15, 20 and 30 min, 65 μl aliquots were removed, and the reaction was immediately stopped and cooled with twice the amount of ethanol. The samples were frozen until analyzed. The remaining concentration of undegraded test substance was determined by LC MSMS. The half-life (T½) was determined from the gradient of the signal of test substance/unit time plot, allowing to calculate the half-life of the test substance, assuming first order kinetics, from the decrease in the concentration of the compound with time. The microsomal clearance (mCl) was calculated from mCl=ln 2/T½/(content of microsomal protein in mg/ml)×1000 (modified from references: Di, The Society for Biomolecular Screening, 2003, 453-462; Obach, DMD, 1999 vol 27. N 11, 1350-1359).

In series [2] the target is T1, human GlyT1c transporter (Homo sapiens, UniProt P48067).
T1 construct: expressed in transfected cells; host or cells: recombinant CHO cells (membranes); the uptake assay names the line hGlyT1c_5_CHO
T1 sequence (P48067 1-706): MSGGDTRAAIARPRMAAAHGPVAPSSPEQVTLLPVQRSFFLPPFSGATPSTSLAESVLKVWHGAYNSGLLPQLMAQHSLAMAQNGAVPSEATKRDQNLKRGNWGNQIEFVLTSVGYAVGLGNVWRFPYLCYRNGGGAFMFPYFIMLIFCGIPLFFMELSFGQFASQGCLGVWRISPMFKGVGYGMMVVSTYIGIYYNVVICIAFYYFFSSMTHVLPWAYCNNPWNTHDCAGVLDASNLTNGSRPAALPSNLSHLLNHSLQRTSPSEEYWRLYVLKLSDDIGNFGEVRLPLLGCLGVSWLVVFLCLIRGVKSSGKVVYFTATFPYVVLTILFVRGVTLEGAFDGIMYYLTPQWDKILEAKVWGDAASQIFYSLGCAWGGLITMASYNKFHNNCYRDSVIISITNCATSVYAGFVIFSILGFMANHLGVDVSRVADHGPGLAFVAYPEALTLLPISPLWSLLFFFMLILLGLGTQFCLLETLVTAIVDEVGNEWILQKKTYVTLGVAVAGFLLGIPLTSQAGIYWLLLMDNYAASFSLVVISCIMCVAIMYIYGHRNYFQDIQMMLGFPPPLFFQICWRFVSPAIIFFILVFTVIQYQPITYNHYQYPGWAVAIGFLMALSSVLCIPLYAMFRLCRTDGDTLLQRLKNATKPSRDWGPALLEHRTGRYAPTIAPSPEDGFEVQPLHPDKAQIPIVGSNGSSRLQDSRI
In words: Radioligand binding assay using recombinant CHO cell membranes expressing human GlyT1. The conditions noted are these: read-out: radioligand binding Kiapp. On the procedure:
2. Radioligand Binding Assays Using Recombinant CHO Cell Membranes Expressing Human GlyT1:
Radioligand binding to human GlyT1c transporter-expressing membranes was determined as described in Mezler et al., Molecular Pharmacology 74:1705-1715, 2008.

On to `O=S(=O)(NCCOc1ccc2c(c1)C(Cc1ccccc1)NCCO2)C1CCC1` (stereo not shown) [Example 52, Cyclobutanesulfonic acid [2-(5-benzyl-2,3,4,5-tetrahydro-benzo[f][1,4]oxazepin-7-yloxy)-ethyl]-amide], for which the “human mCl” value in series [1] is reported as “≦100 μl/min/mg”. Moreover, the Ki in series [2] was ≤ 1000 nM.

`CCS(=O)(=O)NCc1cc2c(cc1F)CCCNC2Cc1ccccc1.O=C(O)C(F)(F)F` (stereo not shown) [Example 42, Ethanesulfonic acid (1-benzyl-7-fluoro-2,3,4,5-tetrahydro-1H-benzo[c]azepin-8-ylmethyl)-amide; compound with trifluoro-acetic acid]: the “human mCl” value in series [1] is listed as “≦50 μl/min/mg”. Further, the Ki in series [2] was ≤ 1000 nM.

For `O=S(=O)(CC1CC1)NCCOc1cc2c(cc1F)CCCNC2Cc1ccccc1` (stereo not shown) [Example 46, N-[2-(1-Benzyl-7-fluoro-2,3,4,5-tetrahydro-1H-benzo[c]azepin-8-yloxy)-ethyl]-C-cyclopropyl-methanesulfonamide], the “human mCl” value in series [1] is “≦50 μl/min/mg”. The Ki in series [2] is ≤ 100 nM.

As to `CCCS(=O)(=O)NCCOc1ccc2c(c1)C(Cc1ccccc1)NCCO2` (stereo not shown) [Example 51, Propane-1-sulfonic acid [2-(5-benzyl-2,3,4,5-tetrahydro-benzo[f][1,4]oxazepin-7-yloxy)-ethyl]-amide], the “human mCl” value in series [1] is given as “≦100 μl/min/mg”. Besides, the Ki in series [2] was ≤ 1000 nM.

Take `CCS(=O)(=O)NCCOc1ccc2c(c1)C(Cc1ccccc1)NCCO2` (stereo not shown) [Example 50, Ethanesulfonic acid [2-(5-benzyl-2,3,4,5-tetrahydro-benzo[f][1,4]oxazepin-7-yloxy)-ethyl]-amide]: the “human mCl” value in series [1] is “≦50 μl/min/mg”. For the same compound, the Ki in series [2] was ≤ 10000 nM.

With `O=S(=O)(CC1CC1)NCCOc1ccc2c(c1)C(Cc1ccccc1)NCCO2` (stereo not shown) [Example 53, N-[2-(5-Benzyl-2,3,4,5-tetrahydro-benzo[f][1,4]oxazepin-7-yloxy)-ethyl]-C-cyclopropyl-methanesulfonamide], the “human mCl” value in series [1] was “≦100 μl/min/mg”. Further, in series [2], the Ki was ≤ 1000 nM.

`CCS(=O)(=O)NCc1ccc2c(c1)C(Cc1ccc(Cl)cc1)NCCC2` (stereo not shown) [Example 16, Ethanesulfonic acid [1-(4-chloro-benzyl)-2,3,4,5-tetra-hydro-1H-benzo[c]azepin-8-ylmethyl]-amide]: the Ki in series [2] was ≤ 10000 nM.

For the compound `CN1CCCc2ccc(OCCNS(=O)(=O)c3cn(C)cn3)cc2C1Cc1ccccc1` (stereo not shown) [Example 6, 1-Methyl-1H-imidazole-4-sulfonic acid [2-(1-benzyl-2-methyl-2,3,4,5-tetrahydro-1H-benzo[c]azepin-8-yloxy)-ethyl]-amide], the Ki in series [2] was ≤ 10 nM.

Consider `CN1CCCc2ccc(CNS(=O)(=O)c3cn(C)cn3)cc2C1Cc1ccccc1` (stereo not shown) [Example 38, 1-Methyl-1H-imidazole-4-sulfonic acid (1-benzyl-2-methyl-2,3,4,5-tetrahydro-1H-benzo[c]azepin-8-ylmethyl)-amide], for which, in series [2], the Ki was ≤ 100 nM.

`CCS(=O)(=O)NCCOc1cc2c(cc1F)CCCNC2Cc1ccccc1` (stereo not shown) [Example 43, Ethanesulfonic acid [2-(1-benzyl-7-fluoro-2,3,4,5-tetrahydro-1H-benzo-[c]azepin-8-yloxy)-ethyl]-amide]: the “human mCl” value in series [1] is on record as “≦50 μl/min/mg”. The Ki in series [2] is ≤ 1000 nM.

On to `O=C(O)/C=C/C(=O)O.O=S(=O)(CC1CC1)NCc1cc2c(cc1F)CCCNC2Cc1ccccc1` (stereo not shown) [Example 44, N-(1-Benzyl-7-fluoro-2,3,4,5-tetrahydro-1H-benzo[c]azepin-8-ylmethyl)-C-cyclopropyl-methanesulfonamide; compound with (E)-but-2-enedioic acid], for which the “human mCl” value in series [1] was “≦50 μl/min/mg”. Further, the Ki in series [2] is ≤ 100 nM.

On to `O=S(=O)(CC1CC1)NCCOc1ccc2c(c1)C(Cc1cccc(F)c1)NCCC2` (stereo not shown) [Example 24, C-Cyclopropyl-N-{2-[1-(3-fluoro-benzyl)-2,3,4,5-tetrahydro-1H-benzo[c]azepin-8-yloxy]-ethyl}-methanesulfonamide], for which the Ki in series [2] was ≤ 100 nM.

With `O=S(=O)(CC1CC1)NCc1ccc2c(c1)C(Cc1cccc(F)c1)NCCC2` (stereo not shown) [Example 28, C-Cyclopropyl-N-[1-(3-fluoro-benzyl)-2,3,4,5-tetrahydro-1H-benzo[c]azepin-8-ylmethyl)-methanesulfonamide], in series [2], the Ki is ≤ 100 nM.

As for `Cn1cnc(S(=O)(=O)NCCOc2ccc3c(c2)C(Cc2cccc(F)c2)NCCC3)c1` (stereo not shown) [Example 20, 1-Methyl-1H-imidazole-4-sulfonic acid {2-[1-(3-fluoro-benzyl)-2,3,4,5-tetrahydro-1H-benzo[c]azepin-8-yloxy]-ethyl}-amide], the Ki in series [2] is ≤ 10 nM.

For the compound `Cn1cnc(S(=O)(=O)NCCOc2cc3c(cc2F)CCCNC3Cc2ccccc2)c1` (stereo not shown) [Example 45, 1-Methyl-1H-imidazole-4-sulfonic acid [2-(1-benzyl-7-fluoro-2,3,4,5-tetrahydro-1H-benzo[c]azepin-8-yloxy)-ethyl]amide], in series [1], the “human mCl” value is reported as “≦50 μl/min/mg”. In addition, in series [2], the Ki is ≤ 100 nM.

In the case of `Cn1cc(S(=O)(=O)NCc2ccc3c(c2)C(Cc2ccccc2)NCCC3)cn1` (stereo not shown) [Example 34, 1-Methyl-1H-pyrazole-4-sulfonic acid (1-benzyl-2,3,4,5-tetra-hydro-1H-benzo[c]azepin-8-ylmethyl)-amide], the Ki in series [2] was ≤ 10 nM.

Take `CCCN1CCCc2ccc(CNS(=O)(=O)c3cn(C)cn3)cc2C1Cc1ccccc1` (stereo not shown) [Example 37, 1-Methyl-1H-imidazole-4-sulfonic acid (1-benzyl-2-propyl-2,3,4,5-tetrahydro-1H-benzo[c]azepin-8-ylmethyl)-amide]: the Ki in series [2] was ≤ 10 nM.

On to `CCN1CCCc2ccc(CNS(=O)(=O)c3cn(C)cn3)cc2C1Cc1ccccc1` (stereo not shown) [Example 39, 1-Methyl-1H-imidazole-4-sulfonic acid (1-benzyl-2-ethyl-2,3,4,5-tetrahydro-1H-benzo[c]azepin-8-ylmethyl)-amide], for which, in series [2], the Ki was ≤ 100 nM.

Take `Cn1cnc(S(=O)(=O)NCCOc2ccc3c(c2)C(Cc2ccccc2)NCCO3)c1` (stereo not shown) [Example 48, 1-Methyl-1H-imidazole-4-sulfonic acid [2-(5-benzyl-2,3,4,5-tetrahydro-benzo[f][1,4]oxazepin-7-yloxy)-ethyl]-amide]: the “human mCl” value in series [1] is reported as “≦50 μl/min/mg”. In addition, the Ki in series [2] was ≤ 100 nM.

As to `O=S(=O)(NCc1ccc2c(c1)C(Cc1ccccc1)NCCC2)C1CCC1` (stereo not shown) [Example 31, Cyclobutanesulfonic acid (1-benzyl-2,3,4,5-tetrahydro-1H-benzo[c]azepin-8-ylmethyl)-amide], the Ki in series [2] was ≤ 100 nM.

`Cn1cnc(S(=O)(=O)NCc2ccc3c(c2)C(C(C)(C)c2ccccc2)NCCO3)c1` (stereo not shown) [Example 47, 1-Methyl-1H-imidazole-4-sulfonic acid [5-(1-methyl-1-phenyl-ethyl)-2,3,4,5-tetrahydro-benzo[f][1,4]oxazepin-7-ylmethyl]-amide]: the Ki in series [2] was ≤ 10000 nM.
